Values of other authors as cited in PMC4186413, “Identification of metabolic pathways and enzyme systems involved in the in vitro human hepatic metabolism of dronedarone, a potent new oral antiarrhythmic drug” (Pharmacology Research & Perspectives, 2014).

Set-up: method as in Touboul et al. [2003]; Wadhani et al. [2006]
Conditions: 400-mg twice daily, ref Touboul et al. [2003]; Wadhani et al. [2006]; cited from earlier work

CCCCc1oc2ccc(NS(C)(=O)=O)cc2c1C(=O)c1ccc(OCCCN(CCCC)CCCC)cc1.Cl [Dronedarone, N-(2-Butyl-3-(4-(3-(dibutylamino)propoxy)benzoyl)-5-benzofuranyl)methanesulfonamide, hydrochloride]
Incidence of any QTc interval >500 msec: 7.7% | PR interval increase: 13.4 ms
